# Values of other authors, collected in publication PMC2483489 (Acta Crystallographica Section D: Biological Crystallography, 2006).
# Assays:
# [1] = system: KDR; settings: statement in words, no reference given
# [2] = system: c-Kit; settings: ref Mol et al., 2004
# [3] = system: Flt-3; settings: statement in words, no reference given
# [4] = system: Irk; settings: statement in words, no reference given
# [5] = system: resistance mutants isolated from relapsed imatinib patients; settings: ref Weisberg et al., 2006, Kantarjian et al.
Binding to KDR [1],Binding to c-Kit [2],Binding to Flt-3 [3],Binding to Irk [4],SMILES,Activity against imatinib-resistance mutants [5]
does not bind,does bind,does not bind,does not bind,"Cc1ccc(NC(=O)c2ccc(CN3CCN(C)CC3)cc2)cc1Nc1nccc(-c2cccnc2)n1 [Imatinib, imatinib]",–
–,–,–,–,"Cc1cn(-c2cc(NC(=O)c3ccc(C)c(Nc4nccc(-c5cccnc5)n4)c3)cc(C(F)(F)F)c2)cn1 [NVP-AMN107, nilotinib]",active against all but one of the resistance mutants
